Results published in patent US11331299B2, “Medicinal use of serrulatane diterpenes” (The University of Sydney, priority 2016, dated 2022).
Like-named read-outs stand apart in the source and are kept apart here.

Tested on: 280 human cancer cell lines
Test: OncoPanel cell proliferation assay (10-day)
Type: cell-based
Details: Homo sapiens; for EC50: read-out: Cell Count EC50; for GI50: read-out: Cell Count GI50; for IC50: read-out: Cell Count IC50
[1] = C-4-II, C-4 II, Female GU - Cervix
[2] = C-33-A, C-33A, Female GU - Cervix
[3] = CAL-62, CAL-62, Endocrine - Thyroid
[4] = CCF-STTG1, CCF-STTG1, CNS - Glioma
[5] = CGTH-W-1, CGTH-W-1, Endocrine - Thyroid
[6] = CHP-212, CHP-212, CNS - Neuroblastoma
[7] = COLO-320-HSR, Colo 320 HSR, Colon
[8] = COLO-829, COLO 829, Skin (Melanoma)
[9] = COR-L105, COR-L105, Lung - NSCLC
[10] = Ca-Ski, Ca Ski, Female GU - Ovary

## CC(C)=CCC[C@H](CO)[C@@H]1CC[C@@H](C)c2c1cc(C)c(O)c2O [Compound 1, 7,8,18-trihydroxyserrulat-14-ene]
BT-474, BT474, Breast
  EC50: 5.41 µM
  GI50: 4.95 µM
  IC50: 5.46 µM
BT-549, BT-549, Breast
  EC50: 3.14 µM
  GI50: 3.12 µM
  IC50: 3.14 µM
BV-173, BV-173, Leukemia
  EC50: 3.8 µM
  GI50: 3.79 µM
  IC50: 3.8 µM
BXPC-3, BxPC-3, Pancreas
  EC50: 3.29 µM
  GI50: 3.29 µM
  IC50: 3.3 µM
BeWo, Placenta
  EC50: 9.06 µM
  GI50: 8.92 µM
  IC50: 9.06 µM
C32, Skin (Melanoma)
  EC50: 2.11 µM
  GI50: 1.81 µM
  IC50: 2.11 µM
[1]
  EC50: 1.09 µM
  GI50: 1.09 µM
  IC50: 1.1 µM
[2]
  EC50: 7.18 µM
  GI50: 7.08 µM
  IC50: 7.18 µM
CA46, CA46, Lymphoma
  EC50: 2.27 µM
  GI50: 2.26 µM
  IC50: 2.27 µM
CAKI-1, Caki-1, Kidney
  EC50: 2.86 µM
  GI50: 2.75 µM
  IC50: 2.86 µM
CAKI-2, Caki-2, Kidney
  EC50: 4.38 µM
  GI50: 4.35 µM
  IC50: 4.38 µM
CAL-27, Cal 27, Head and Neck
  EC50: 2.16 µM
  GI50: 2.15 µM
  IC50: 2.16 µM
[3]
  EC50: 1.69 µM
  GI50: 1.69 µM
  IC50: 1.69 µM
CAMA-1, CAMA-1, Breast
  EC50: 3.51 µM
  GI50: 3.4 µM
  IC50: 3.51 µM
CAPAN-1, Capan-1, Pancreas
  EC50: > 30 µM
  GI50: > 30 µM
  IC50: > 30 µM
[4]
  EC50: 5.79 µM
  GI50: 5.24 µM
  IC50: 6.6 µM
CCRF-CEM, CCRFCEM, Leukemia
  EC50: 4.73 µM
  GI50: 4.71 µM
  IC50: 4.73 µM
CEM/C1, CEM-C1, Leukemia
  EC50: 1.96 µM
  GI50: 1.95 µM
  IC50: 1.96 µM
CFPAC-1, CFPAC-1, Pancreas
  EC50: 3.65 µM
  GI50: 3.65 µM
  IC50: 3.66 µM
[5]
  EC50: 1.2 µM
  GI50: 1.2 µM
  IC50: 1.2 µM
CHL-1, CHL-1, Skin (Melanoma)
  EC50: 1.37 µM
  GI50: 1.36 µM
  IC50: 1.37 µM
[6]
  EC50: 1.43 µM
  GI50: 1.41 µM
  IC50: 1.43 µM
CML-T1, CML-T1, Leukemia
  EC50: 1.93 µM
  GI50: 1.93 µM
  IC50: 1.93 µM
COLO 201, Colo 201, Colon
  EC50: 0.92 µM
  GI50: 0.92 µM
  IC50: 0.92 µM
COLO 205, Colo 205, Colon
  EC50: 1.31 µM
  GI50: 1.31 µM
  IC50: 1.31 µM
COLO 320DM, Colon
  EC50: 3.2 µM
  GI50: 3.18 µM
  IC50: 3.2 µM
[7]
  EC50: 3.09 µM
  GI50: 3.13 µM
  IC50: 3.13 µM
[8]
  EC50: 0.68 µM
  GI50: 0.62 µM
  IC50: 0.68 µM
COR-L23, COR-L23, Lung - NSCLC
  EC50: 7.18 µM
  GI50: 7.14 µM
  IC50: 7.18 µM
[9]
  EC50: 1.44 µM
  GI50: 1.42 µM
  IC50: 1.45 µM
CRO-AP2, CRO-AP2, Lymphoma
  EC50: 5.72 µM
  GI50: 5.66 µM
  IC50: 5.72 µM
[10]
  EC50: 5.28 µM
  GI50: 5.24 µM
  IC50: 5.29 µM
Calu-1, Calu1, Lung - NSCLC
  EC50: 3.1 µM
  GI50: 3.07 µM
  IC50: 3.1 µM
Calu-6, Calu6, Lung - NSCLC
  EC50: 9.24 µM
  GI50: 8.59 µM
